Laboratory results published in PubChem BioAssay AID2086 (NMMLSC, 2009).
The source made the active and inactive calls. No rule for the calls is given here.

molecular target: Induced myeloid leukemia cell differentiation protein Mcl-1 (Homo sapiens) (UniProt Q07820); test: regulators of Bim-Mcl-1 interaction, confirmation, biochemical, bead-based flow cytometry, multiplex, HTS hits (AID 2086); settings: not given
Sequence (Q07820 whole entry, looked up): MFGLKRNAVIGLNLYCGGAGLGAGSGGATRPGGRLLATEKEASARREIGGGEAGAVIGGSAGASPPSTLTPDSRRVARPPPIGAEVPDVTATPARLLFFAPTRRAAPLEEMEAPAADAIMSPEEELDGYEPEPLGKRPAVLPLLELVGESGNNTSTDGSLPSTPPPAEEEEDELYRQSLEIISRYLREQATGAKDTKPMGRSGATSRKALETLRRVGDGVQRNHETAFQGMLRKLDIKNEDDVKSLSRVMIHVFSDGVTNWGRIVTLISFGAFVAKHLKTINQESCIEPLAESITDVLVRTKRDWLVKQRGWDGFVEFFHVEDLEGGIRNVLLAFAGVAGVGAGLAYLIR

Row | SMILES | EC50
1 | COc1ccc(N2C(=O)C(Cl)=C(NC3C(=O)N(c4ccccc4)N(C)C3C)C2=O)cc1 (stereo unspecified) | inactive

same assay, conditions: at 100 µM (top of the series)

Row | SMILES | response, inhibition or activation
2 | COc1ccccc1-n1c(-c2ccccc2)c[nH]c1=S | inactive
3 | Cc1ccc(-c2cc(-c3ccc(C)o3)nc(N)c2C#N)cc1 | inactive
4 | S=c1[nH]cc(-c2ccccc2)n1-c1ccccc1 | inactive
5 | COc1ccccc1NC1=C(NC(C)=O)C(=O)c2ccccc2C1=O | inactive
6 | O=C1NC(=O)C(=Cc2ccc(-c3cc(Cl)ccc3[N+](=O)[O-])o2)C(=O)N1 | inactive
7 | O=C1C(Cl)=C(N2CCN(c3ccccc3[N+](=O)[O-])CC2)C(=O)c2ccccc21 | inactive
8 | COc1cc(CNc2ccc3[nH]c(=O)[nH]c3c2)cc(Br)c1OCC(=O)NC(C)(C)C | inactive
9 | CCN1C(=O)/C(=C\C=C2/C=CC=CN2CC)SC1=S | inactive
10 | CNC(CC(=O)c1ccc([N+](=O)[O-])cc1)C(Cl)(Cl)Cl (stereo unspecified) | inactive
11 | O=C1/C(=C\c2ccco2)NC(=S)N1c1ccccc1 | inactive
12 | Cc1cc(-c2cc(-c3ccc(Cl)cc3)nc(N)c2C#N)co1 | inactive
13 | O=C(Nc1nnc(COc2ccc(Cl)cc2)s1)c1ccco1 | inactive
14 | CC(=O)OCCCNc1cc(Sc2nc3ccccc3s2)c2nonc2c1[N+](=O)[O-] | inactive
15 | O=[N+]([O-])c1c(NCCCO)cc(Sc2nc3ccccc3s2)c2nonc12 | inactive
16 | Oc1ccc(NCc2ccccc2OCc2ccccc2)cc1 | inactive
17 | O=C1c2ccccc2C(=O)N1CN(C(=O)COc1ccc(Cl)cc1Cl)c1cccc(F)c1 | inactive
18 | O=c1c2c(n3nnnc3n1Cc1ccccc1)-c1ccccc1CC21CCCC1 | inactive
19 | Cc1ccc(-c2cc(-c3ccc(F)cc3)c(C#N)c(N)n2)o1 | inactive
20 | CCN(CC)c1ccc(NC(=O)c2ccccc2F)cc1S(=O)(=O)Nc1ccccc1OC | inactive
21 | CC(=O)Nc1ccc(-n2cc(-c3ccccc3)[nH]c2=S)cc1 | inactive
22 | CCOc1ccccc1CNc1ccc(O)cc1 | inactive
23 | Cc1nnc(Sc2cc(NCCO)c([N+](=O)[O-])c3nonc23)s1 | inactive
24 | CCN(CC)C(=O)COC(=O)c1cc(-c2ccco2)nc2ccccc12 | inactive
25 | CN(CCO)c1cc(Sc2nc3ccccc3s2)c2nonc2c1[N+](=O)[O-] | inactive
26 | O=C(/C=C/c1ccc(-c2ccccc2[N+](=O)[O-])o1)c1ccccc1 | inactive
27 | CCN(CC)c1ccc(NC(=O)c2ccccc2Br)cc1S(=O)(=O)Nc1ccccc1OC | inactive
28 | Clc1nc(NCc2cccnc2)nc(N2CCOCC2)n1 | inactive
29 | CCN(CC)c1ccc(NC(=O)COc2ccccc2C)cc1S(=O)(=O)Nc1ccccc1OC | inactive
30 | Cc1ccc(-c2cc(C(=O)Nc3nccs3)c3ccccc3n2)o1 | inactive
31 | C=CS(=O)(=O)c1sc(Cl)c(N2CCOCC2)c1[N+](=O)[O-] | inactive
